From ChEMBL document CHEMBL1148225, “Discovery and SAR of trisubstituted thiazolidinones as CCR4 antagonists” (Bioorg Med Chem Lett, 2004)

Target: T1, C-C chemokine receptor type 4 (Homo sapiens, UniProt P51679)
T1 sequence (P51679 whole entry): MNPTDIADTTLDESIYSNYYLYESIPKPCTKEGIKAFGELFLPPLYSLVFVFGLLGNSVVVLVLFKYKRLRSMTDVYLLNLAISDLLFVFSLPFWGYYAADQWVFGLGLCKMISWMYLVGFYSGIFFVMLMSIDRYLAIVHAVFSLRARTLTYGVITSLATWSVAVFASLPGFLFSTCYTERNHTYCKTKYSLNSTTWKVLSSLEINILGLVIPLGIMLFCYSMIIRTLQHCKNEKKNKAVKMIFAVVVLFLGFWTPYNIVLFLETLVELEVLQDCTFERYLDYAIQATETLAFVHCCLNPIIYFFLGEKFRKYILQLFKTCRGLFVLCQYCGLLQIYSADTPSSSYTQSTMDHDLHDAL
Experiment: Inhibition of [125I]MDC binding to recombinant human C-C chemokine receptor type 4 (CCR4) expressed in murine pre-B cells
Type: cell-based

| SMILES | IC50 [µM] |
| --- | --- |
| CN1CCN(C(=O)CN2C(=O)[C@@H](CC(=O)NCc3cccc4ccccc34)S[C@@H]2c2ccc(Cl)cc2Cl)CC1 | 20 |
| O=C(C[C@H]1S[C@H](c2ccc(Cl)cc2Cl)N(CC(=O)NCCCN2CCOCC2)C1=O)NCc1ccccc1-c1ccccc1 | 6 |
| O=C(C[C@H]1S[C@H](c2cccs2)N(CC(=O)NCCCN2CCOCC2)C1=O)NCc1cccc2ccccc12 | 33 |
| O=C(C[C@H]1S[C@H](c2ccc(Cl)cc2Cl)N(CC(=O)NCCCN2CCOCC2)C1=O)NCc1cccs1 | 11 |
| O=C(C[C@H]1S[C@H](CCc2ccccc2)N(CC(=O)NCCCN2CCOCC2)C1=O)NCc1cccc2ccccc12 | 100 |
| O=C(C[C@H]1S[C@H](c2ccoc2)N(CC(=O)NCCCN2CCOCC2)C1=O)NCc1cccc2ccccc12 | 100 |
| O=C(C[C@H]1S[C@H](c2ccc(Cl)cc2Cl)N(CC(=O)NCCCN2CCOCC2)C1=O)NCc1cccc(Cl)c1Cl | 0.79 |
| O=C(C[C@H]1S[C@H](c2ccc(Cl)cc2Cl)N(CC(=O)NCCCN2CCOCC2)C1=O)NCc1ccc(Cl)cc1Cl (stereo in doubt; 66) | 2 |
| O=C(C[C@H]1S[C@H](c2ccccc2Cl)N(CC(=O)NCCCN2CCOCC2)C1=O)NCc1cccc2ccccc12 | 11 |
| O=C(C[C@H]1S[C@H](c2ccco2)N(CC(=O)NCCCN2CCOCC2)C1=O)NCc1cccc2ccccc12 | 29 |
| O=C(C[C@H]1S[C@H](c2ccc(Cl)cc2Cl)N(CCN2CCOCC2)C1=O)NCc1cccc2ccccc12 | 9 |
| Cc1c(Cl)cccc1CNC(=O)C[C@H]1S[C@H](c2ccc(Cl)cc2Cl)N(CC(=O)NCCCN2CCCCC2)C1=O | 0.14 |
| O=C(C[C@H]1S[C@H](c2ccsc2)N(CC(=O)NCCCN2CCOCC2)C1=O)NCc1cccc2ccccc12 | 66 |
| CN1CCN(CCCNC(=O)CN2C(=O)[C@@H](CC(=O)NCc3cccc4ccccc34)S[C@@H]2c2ccc(Cl)cc2Cl)CC1 | 0.57 |
| C[C@H](NC(=O)C[C@H]1S[C@H](c2ccc(Cl)cc2Cl)N(CC(=O)NCCCN2CCOCC2)C1=O)c1ccccc1 | 12 |
| O=C(C[C@H]1S[C@H](c2cccc(C(F)(F)F)c2)N(CC(=O)NCCCN2CCOCC2)C1=O)NCc1cccc2ccccc12 | 12 |
| C[C@@H](NC(=O)C[C@H]1S[C@H](c2ccc(Cl)cc2Cl)N(CC(=O)NCCCN2CCOCC2)C1=O)c1ccccc1 (stereo in doubt; 89) | 0.25 |
| CN(C)CCCNC(=O)CN1C(=O)[C@@H](CC(=O)NCc2cccc3ccccc23)S[C@@H]1c1ccc(Cl)cc1Cl | 0.36 |
| O=C(C[C@H]1S[C@H](c2ccc(F)cc2F)N(CC(=O)NCCCN2CCOCC2)C1=O)NCc1cccc2ccccc12 | 1 |
| O=C(C[C@H]1S[C@H](c2ccc(Cl)cc2Cl)N(CC(=O)NCCCN2CCOCC2)C1=O)NCc1cccc(C(F)(F)F)c1 | 1 |
| O=C(C[C@H]1S[C@H](c2ccc(Cl)cc2Cl)N(CC(=O)NCCN2CCOCC2)C1=O)NCc1cccc2ccccc12 | 3.5 |
| COc1ccc(CNC(=O)C[C@H]2S[C@H](c3ccc(Cl)cc3Cl)N(CC(=O)NCCCN3CCOCC3)C2=O)c(OC)c1 | 32 |
| O=C(CN1C(=O)[C@@H](CC(=O)N[C@@H]2CCc3ccccc32)S[C@@H]1c1ccc(Cl)cc1Cl)NCCCN1CCOCC1 | 2.9 |
| Cc1c(Cl)cccc1CNC(=O)C[C@H]1S[C@H](c2ccc(Cl)cc2Cl)N(CC(=O)NCCCN2CCOCC2)C1=O | 0.4 |
| O=C(C[C@H]1S[C@H](c2ccc(Cl)cc2Cl)N(CCNS(=O)(=O)CCCN2CCOCC2)C1=O)NCc1cccc2ccccc12 | 24 |
| CN(C)CCCN(C)C(=O)CN1C(=O)[C@@H](CC(=O)NCc2cccc3ccccc23)S[C@@H]1c1ccc(Cl)cc1Cl | 0.36 |
| O=C(CN1C(=O)[C@@H](CC(=O)Nc2nccs2)S[C@@H]1c1ccc(Cl)cc1Cl)NCCCN1CCOCC1 | 11 |
| O=C(C[C@H]1S[C@H](c2ccc(Cl)cc2Cl)N(CC(=O)NCCCN2CCOCC2)C1=O)NCc1cccc(C(F)(F)F)c1F | 2.5 |
| O=C(C[C@H]1S[C@H](c2ccc(Cl)cc2Cl)N(CC(=O)NCCCN2CCOCC2)C1=O)NCc1ccco1 | 7 |
